Measured values as given in publication PMC4767465, “NF-κB drives acquired resistance to a novel mutant-selective EGFR inhibitor” (Oncotarget, 2015).
Where two headings read alike, the source gives them in different places.

What was measured:
HCC-827 = test: cells; parameters: anti-proliferative effect in NSCLC cell lines, 50% growth inhibition concentration (GI50); conditions: Homo sapiens, HCC827
From the text: (§1) The exceptional activity of the inhibitor in EGFR-T790M cells was further confirmed in three-dimensional tumor spheroids derived from NCI-H1975 cells. […] Furthermore, increase of cellular fragments in Sub-G1 phase, chromatin condensation and nuclear fragmentation were observed after treatment with the EGFR-TKI (Supplementary Figure 3A). […] The human NSCLC cell lines A549, Calu-1, Calu-6, NCI-H460, NCI-H292, NCI-H1299, NCI-H1730, NCI-H23, NCI-H3255, NCI-H520, NCI-H522, NCI-H596, HCC-827, SKMES-1, SW1573 and NCI-H1975 and the human epidermoid carcinoma A431 cells were purchased from ATCC (Manassas, VA), and cultured as recommended. 293H cells were purchased from Invitrogen (Carlsbad, CA). PC9, PC9GR4, PC9DR1 and HCC-827 GR5 were a kind gift of Dr. Pasi A. Jänne, Harvard University, Boston, MA [13]. PC9/ER, HCC-827/R1 and H3255/XLR cells are isogenic erlotinib- or XL-647-resistant lines derived from PC9, HCC-827 and NCI-H3255 cells, respectively, as previously described. Additional information on cell cultures procedures is reported in the Supplemental Methods.

NCI-H460 = test: cells; parameters: anti-proliferative effect in NSCLC cell lines, 50% growth inhibition concentration (GI50); conditions: Homo sapiens, NCI-H460
From the text: as §1

NCI-H3255 = test: cells; parameters: anti-proliferative effect in NSCLC cell lines, 50% growth inhibition concentration (GI50); conditions: Homo sapiens, NCI-H3255
From the text: as §1

NCI-H23 = test: cells; parameters: anti-proliferative effect in NSCLC cell lines, 50% growth inhibition concentration (GI50); conditions: Homo sapiens, NCI-H23; read-out: CNX-2006 GI50
From the text: as §1

PC9 = test: cells; parameters: anti-proliferative effect in NSCLC cell lines, 50% growth inhibition concentration (GI50); conditions: Homo sapiens, PC-9
From the text: as §1

Calu-1 = test: cells; parameters: anti-proliferative effect in NSCLC cell lines, 50% growth inhibition concentration (GI50); conditions: Homo sapiens, Calu-1
From the text: as §1

SW1573 = test: cells; parameters: anti-proliferative effect in NSCLC cell lines, 50% growth inhibition concentration (GI50); conditions: Homo sapiens, SW1573
From the text: as §1

NCI-H596 = test: cells; parameters: anti-proliferative effect in NSCLC cell lines, 50% growth inhibition concentration (GI50); conditions: Homo sapiens, NCI-H596
From the text: as §1

Calu-6 = test: cells; parameters: anti-proliferative effect in NSCLC cell lines, 50% growth inhibition concentration (GI50); conditions: Homo sapiens, Calu-6; read-out: CNX-2006 GI50
From the text: as §1

NCI-H1299 = test: cells; parameters: anti-proliferative effect in NSCLC cell lines, 50% growth inhibition concentration (GI50); conditions: Homo sapiens, NCI-H1299; read-out: CNX-2006 GI50
From the text: as §1

NCI-H1975 = test: cells; parameters: anti-proliferative effect in NSCLC cell lines, 50% growth inhibition concentration (GI50); conditions: Homo sapiens, NCI-H1975; read-out: CNX-2006 GI50
From the text: as §1

NCI-H292 = test: cells; parameters: anti-proliferative effect in NSCLC cell lines, 50% growth inhibition concentration (GI50); conditions: Homo sapiens, NCI-H292; read-out: CNX-2006 GI50
From the text: as §1

A549 = test: cells; parameters: anti-proliferative effect in NSCLC cell lines, 50% growth inhibition concentration (GI50); conditions: Homo sapiens, A549
From the text: as §1

NCI-H520 = test: cells; parameters: anti-proliferative effect in NSCLC cell lines, 50% growth inhibition concentration (GI50); conditions: Homo sapiens, NCI-H520; read-out: CNX-2006 GI50
From the text: as §1

NCI-H522 = test: cells; parameters: anti-proliferative effect in NSCLC cell lines, 50% growth inhibition concentration (GI50); conditions: Homo sapiens, NCI-H522; read-out: CNX-2006 GI50
From the text: as §1

NCI-H1703 = test: cells; parameters: anti-proliferative effect in NSCLC cell lines, 50% growth inhibition concentration (GI50); conditions: Homo sapiens, NCI-H1703; read-out: CNX-2006 GI50
From the text: as §1

SKMES-1 = test: cells; parameters: anti-proliferative effect in NSCLC cell lines, 50% growth inhibition concentration (GI50); conditions: Homo sapiens, SK-MES-1; read-out: CNX-2006 GI50
From the text: as §1

EGFR [1] = biological target: EGFR (Homo sapiens, UniProt P00533, DEL746-750); test: EGFR phosphorylation in PC9 and HCC-827 cells, […] h treatment; format: cell-based
EGFR [2] = biological target: EGFR (Homo sapiens, UniProt P00533, T790M); test: EGFR phosphorylation in transfected […] cells; format: cell-based
EGFR [3] = biological target: EGFR (Homo sapiens, UniProt P00533, DEL746-750/T790M); test: EGFR phosphorylation in PC9GR4 cells, […] h treatment; format: cell-based
WT-EGFR = WT-EGFR (Homo sapiens, UniProt P00533); test: radiometric HotSpot recombinant kinase assay, […] compound, […] ATP; format: biochemical
Chk2 = biological target: T1, Chk2 (Homo sapiens, UniProt O96017); test: as above; format: biochemical
T1 construct: gene CHEK2

EGFR-L858R/T790M = EGFR-L858R/T790M (Homo sapiens, UniProt P00533, L858R/T790M); test: radiometric HotSpot recombinant kinase assay, […] compound, […] ATP; about […] inhibition; format: biochemical

T1 sequence (O96017 whole entry): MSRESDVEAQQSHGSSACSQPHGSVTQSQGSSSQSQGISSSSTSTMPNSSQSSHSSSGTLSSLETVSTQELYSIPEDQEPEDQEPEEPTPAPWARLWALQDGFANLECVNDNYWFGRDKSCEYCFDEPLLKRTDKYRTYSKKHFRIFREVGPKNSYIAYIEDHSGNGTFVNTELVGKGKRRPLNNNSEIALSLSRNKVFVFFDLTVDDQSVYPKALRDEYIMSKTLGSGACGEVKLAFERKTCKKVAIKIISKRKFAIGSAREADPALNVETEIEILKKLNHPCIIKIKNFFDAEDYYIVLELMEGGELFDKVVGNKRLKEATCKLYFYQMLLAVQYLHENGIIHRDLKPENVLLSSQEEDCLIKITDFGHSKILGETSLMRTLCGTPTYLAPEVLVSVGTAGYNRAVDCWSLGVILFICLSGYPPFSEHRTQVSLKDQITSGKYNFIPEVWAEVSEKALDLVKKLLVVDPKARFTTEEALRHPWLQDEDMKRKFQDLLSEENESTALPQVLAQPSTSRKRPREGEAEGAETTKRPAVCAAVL

C=CC(=O)Nc1cccc(Nc2nc(Nc3ccc(NC4CN(CCF)C4)cc3OC)ncc2C(F)(F)F)c1 [CNX-2006]
GI50 (HCC-827; read-out: CNX-2006 GI50): 3 ± 2 nM | GI50 (NCI-H460; read-out: CNX-2006 GI50): 5 ± 0.6 µM | GI50 (NCI-H3255; read-out: CNX-2006 GI50): 6 ± 2 nM | GI50 (NCI-H23): 2400 ± 300 nM | GI50 (PC9; read-out: CNX-2006 GI50): 9 ± 1 nM | GI50 (Calu-1; read-out: CNX-2006 GI50): 8 ± 0.3 µM | GI50 (SW1573; read-out: CNX-2006 GI50): 1900 ± 200 nM | GI50 (NCI-H596; read-out: CNX-2006 GI50): 4.2 ± 0.3 µM | GI50 (Calu-6): 3.2 ± 0.3 µM | GI50 (NCI-H1299): 4.5 ± 0.5 µM | GI50 (NCI-H1975): 72 ± 2 nM | GI50 (NCI-H292): 340 ± 40 nM | GI50 (A549; read-out: CNX-2006 GI50): 2700 ± 100 nM | GI50 (NCI-H520): 5.2 ± 0.4 µM | GI50 (NCI-H522): 1900 ± 400 nM | GI50 (NCI-H1703): 4.3 ± 0.3 µM | GI50 (SKMES-1): 1400 ± 100 nM | IC50 (EGFR [1]): 55 to 104 nM | EGFR phosphorylation in transfected 293H cells (EGFR [2]): CNX-2006 effectively inhibited the phosphorylation of the receptor at low nanomolar concentrations | IC50 (EGFR [3]): ~61 nM | inhibition at 1 µM (WT-EGFR): > 50% | inhibition at 1 µM (Chk2): > 50% | inhibition at 1 µM (EGFR-L858R/T790M): ~96%

C=CC(=O)Nc1cccc(Nc2nc(Nc3ccc(N4CCN(C(C)=O)CC4)cc3OC)ncc2C(F)(F)F)c1 [CO-1686]
GI50 (HCC-827; read-out: CO-1686 GI50): 2 ± 1 nM | GI50 (NCI-H460; read-out: CO-1686 GI50): 2.3 ± 0.2 µM | GI50 (NCI-H3255; read-out: CO-1686 GI50): 5 ± 2 nM | GI50 (PC9; read-out: CO-1686 GI50): 4 ± 2 nM | GI50 (Calu-1; read-out: CO-1686 GI50): 2 ± 0.3 µM | GI50 (SW1573; read-out: CO-1686 GI50): 1100 ± 100 nM | GI50 (NCI-H596; read-out: CO-1686 GI50): 2 ± 0.1 µM | GI50 (A549; read-out: CO-1686 GI50): 1200 ± 200 nM
